{"source": "patent US12714685B2", "about": "“Drug combination and its use in the treatment of cancer” (priority 2020, dated 2026)", "key": {"[1]": {"conditions": "two clinical studies, small patient series; cited from earlier work"}, "HMC3 cells": {"tested_on": "HMC3 cells", "assay": "In vitro cytotoxicity (LDH release assay) on non-malignant HMC3 cells", "assay_type": "cell-based, human", "conditions": "24 hours at 37° C.", "text": "(§1) Two colorimetric assays were established to monitor cytotoxicity in response to the tested drugs, one measuring the release of lactate dehydrogenase (LDH) from cells, a well-established marker for cell toxicity, and the other measuring the activity of mitochondrial […], an indicator of cell viability, by the reduction of the soluble tetrazolium dye MTT. […] Cells were also monitored by direct microscopic observation. Controls included cells treated with medium without drug and cells treated with Camptothesin, a known cytotoxic agent, as positive control. Incubation with drug concentrations was carried out for 24 hours at 37° C.\n(§2) DAB was tested in vitro under ideal conditions in absence of any competing physiological amino acid allowing low concentrations of 0.5, 1, 2, 3, 4, 5, 6, 8, 12, and 16 mM.\n(§3) Prazosin was tested at concentrations of 0.1, 0.5, 1, 2, 5, 10, 20, 30 and 50 μM."}, "human glioma cells": {"tested_on": "human glioma cells", "conditions": "cited from earlier work"}, "[2]": {"assay": "Solubility in aqueous media"}, "LN-18 cells": {"tested_on": "LN-18 cells", "assay": "In vitro cytotoxicity (LDH release assay) on LN-18 glioma cells", "conditions": "for IC50: Homo sapiens, LN-18, 24 h", "text": "as §1, §2, §3\nDAB was used at concentrations of 1, 2 and 4 mM. Each of these concentrations was tested alone or in combination with 1, 2 or 4 μM of Prazosin, i.e. the combinations tested were the following: • 1 mM DAB+1 μM Prazosin • 1 mM DAB+2 μM Prazosin • 1 mM DAB+4 μM Prazosin • 2 mM DAB+1 μM Prazosin • 2 mM DAB+2 μM Prazosin • 2 mM DAB+4 μM Prazosin • 4 mM DAB+1 μM Prazosin • 4 mM DAB+2 μM Prazosin • 4 mM DAB+4 μM Prazosin"}, "glioblastoma": {"tested_on": "glioblastoma", "conditions": "mouse xenografts; cited from earlier work"}}, "note": "Read-outs that look alike come from different tables or passages of the source.", "data": [{"smiles": "NCC[C@H](N)C(=O)O", "note": "[DAB, L-2,4 diaminobutyric acid]", "values": [{"measurement": "clinical benefit", "setting": "[1]", "value": "failed to demonstrate significant clinical benefit"}, {"measurement": "IC50 against non-malignant HMC3 cells", "setting": "HMC3 cells", "value": "no IC50 could be determined"}, {"measurement": "toxicity towards non-malignant HMC3 cells (in words)", "setting": "HMC3 cells", "value": "weak toxicity"}, {"measurement": "antitumoral activity in vitro", "setting": "human glioma cells", "value": "antitumoral activity"}, {"measurement": "solubility in aqueous media", "setting": "[2]", "value": "soluble"}, {"measurement": "cytotoxic effect against glioma cell line LN-18 (in words)", "setting": "LN-18 cells; 24 hours at 37° C.", "value": "strong cytotoxic effect"}, {"measurement": "IC50", "setting": "LN-18 cells; read-out: IC50, cytotoxic effect against glioma cell line LN-18", "value": 3800, "unit": "µM"}]}, {"smiles": "COc1cc2nc(N3CCN(C(=O)c4ccco4)CC3)nc(N)c2cc1OC", "note": "[Prazosin]", "values": [{"measurement": "IC50 against non-malignant HMC3 cells", "setting": "HMC3 cells", "value": "no IC50 could be determined"}, {"measurement": "toxicity towards non-malignant HMC3 cells (in words)", "setting": "HMC3 cells", "value": "little cytotoxicity"}, {"measurement": "glioblastoma growth", "setting": "glioblastoma", "value": "inhibit glioblastoma growth"}, {"measurement": "cytotoxic effect against glioma cell line LN-18 (in words)", "setting": "LN-18 cells", "value": "strong cytotoxic effect"}, {"measurement": "IC50", "setting": "LN-18 cells; read-out: IC50, cytotoxic effect against glioma LN-18 line", "value": 3.4, "unit": "µM"}]}]}
